In US7090987B1, “Methods for the identification of compounds for the treatment of neuronal atrophy-associated dementia” (priority 1999, dated 2006):

Experiments:
[1] = test system: N2a cells expressing APPswe/PS1 wt; experiment: Aβ secretion, metabolic labeling and anti-Aβ immunoprecipitation, SDS-PAGE/fluorography; assay type: cell-based, murine
Text: (§1) Cells were then metabolically labeled for four hours, again in the absence or presence of autophagy inhibitors. The growth medium was collected and subjected to immunoprecipitation with an anti-Aβ monoclonal antibody that recognizes both Aβ1-40 and Aβ1-42. Labeled Aβ was resolved by SDS-PAGE and fluorography (FIG. 10A).

[2] = test system: N2a cells expressing APPswe/PS1Δ9; experiment: as above; assay type: cell-based, murine
Text: as §1

[3] = test system: N2a cells expressing APPswe/PS1 wt; experiment: Secreted Aβ in conditioned medium by ELISA; assay type: cell-based, murine
Protocol: (§2) In a second set of experiments, N2a cells expressing APPswe/PS1 wt or APPswe/PS1Δ9 were incubated either in the presence or absence of 5 mM 3MA (FIG. 10B). Conditioned medium was collected and pooled from two plates and spun at 1000×g to remove cells and cellular debris. The amount of secreted Aβ was then determined using ELISA. In both APPswe/PS1 wt and APPswe/PS1 Δ9 N2A cells incubated in the presence of 3MA, there was a reduction of Aβ1-40 and Aβ1-42 in the conditioned medium (FIG. 10B). While the decrease was greatest in the N2A cells expressing mutant PS1, we found a significant decrease of approximately 20% or great for both Aβ species in both the wild-type and Δ9 PS1 expressing lines.
(§3) For the Aβ sandwich ELISA, Nunc-Immuno Plates (Nunc A/S, Roskilde, Denmark) were coated overnight using 4° C. using antibodies specific for Aβ40 or Aβ42 in 100 mM bicarbonate buffer, pH 9.6. Remaining protein binding sites were blocked by incubating with 1% Block Ace (Yukijirushi Milk, Sapporo Japan) in PBS for 4 hours at room temperature. 10% (w/v) homogenates were prepared from a hemibrain in 20 MM Tris, 250 mM sucrose, 1 mM EDTA, 1 mM EGTA, protease inhibitors, pH 7.4, and stored frozen at −70° C. Immediately prior to being loaded on the ELISA, 1 ml of the brain homogenate was extracted in diethylamine (Sigma, St. Lousi, Minn.) by adding an equal volume of 0.4% DEA in 100 mM NaCl, re-homogenized and centrifuged for 1 hour at 100,000×g. The supernatant was collected, neutralized with 0.1 volume 0.5 M Tris, pH 6.8, and loaded in duplicate wells both neat and diluted 1:2 in EC buffer (20 mM Na phosphate, 2 mM EDTA, 400 mM NaCl, 0.2% BSA, 0.4% Block Ace, 0.95% CHAPS). […] Alternatively, conditioned media collected from cells was loaded neat and 1:2. Aβ-40 and Aβ-42 peptide standards were purchased from American Peptide Co. (Sunnyvale, Calif.), stored at −70° C., and diluted in EC buffer immediately prior to use. ELISA plates were incubated overnight with 4° C. with samples and standards. Aβ was detected by incubating for 4 hours at room temperature with an HRP-conjugated anti-Aβ antibody in 20 mM Na phosphate, 2 mM EDTA, 400 mM Nacl, 1.0% BSA. ELISA plates were developed using a color reaction (ABTS Peroxide Substrate System, Kirkegaard & Perry, Gaithersburg, Md.) and the OD450 read.

[4] = test system: N2a cells expressing APPswe/PS1Δ9; experiment: Secreted Aβ in conditioned medium by ELISA; assay type: cell-based, murine; conditions: 5 mM 3MA, FIG. 10B
Protocol: as §2, §3

[5] = test system: N2a cells expressing APPswe/PS1Δ9; experiment: Tau protein levels by Western blot; assay type: cell-based, murine; conditions: for increase in tau protein levels: FIG. 10C; for tau protein levels (Western blot): figure legend FIG. 10C
Protocol: There are numerous assays for tau known in the art. For example, the processing of tau by immunocytochemistry and Western blot analysis is performed using an antibody that recognizes both phosphorylated and non-phosphorylated forms (Adamec et al., Brain Res. 757:93–101, 1997). Abnormal tau conformation and byperphosphorylated tau is examined using suitable monoclonal antibodies (e.g., MC1 (Jicha et al., J. Neurosci. Res. 48:128–132) and AT8 (Innogenetics, Gent, Belgium)). EM analysis can be performed to characterize cytoskeletal changes in neurons (Nixon, Bioessays 20:798–807, 1998).

[6] = test system: primary cortical neurons from normal mouse embryos; experiment: Secreted Aβ by ELISA in primary cortical neuronal cultures; assay type: cell-based
Protocol: We have confirmed this effect of the autophagy inhibitor 3MA on Aβ production in primary cortical neuronal cultures derived from normal mouse embryos (FIG. 11). Following a media change, cultures were incubated in the presence or absence of 3MA for six hours. […] Dissected embryonic cortical tissue from Sprague-Dawley rat embryos (18d gestation) or mouse embryos (17d gestation) is rinsed with calcium/magnesium-free Hanks buffered saline solution and resuspended in 5.0 ml 0.125% trypsin and 0.5 mM EDTA at 37° C. […] Trypsin is quenched and the cells are plated at 1.5×10^6 cells/mL on polylysine coated plates and cultured at 37° C. in 5% CO2 in B27/Neurobasal medium (Gibco/BRL, Gaithersburg, Md.) containing 0.0015% fluorodeoxyuridine (FUDR), giving cultures that are >95% neuronal. For the Aβ sandwich ELISA, Nunc-Immuno Plates (Nunc A/S, Roskilde, Denmark) were coated overnight using 4° C. using antibodies specific for Aβ40 or Aβ42 in 100 mM bicarbonate buffer, pH 9.6. […] Immediately prior to being loaded on the ELISA, 1 ml of the brain homogenate was extracted in diethylamine (Sigma, St. Lousi, Minn.) by adding an equal volume of 0.4% DEA in 100 mM NaCl, re-homogenized and centrifuged for 1 hour at 100,000×g. […] Alternatively, conditioned media collected from cells was loaded neat and 1:2. Aβ-40 and Aβ-42 peptide standards were purchased from American Peptide Co. (Sunnyvale, Calif.), stored at −70° C., and diluted in EC buffer immediately prior to use. ELISA plates were incubated overnight with 4° C. with samples and standards. Aβ was detected by incubating for 4 hours at room temperature with an HRP-conjugated anti-Aβ antibody in 20 mM Na phosphate, 2 mM EDTA, 400 mM Nacl, 1.0% BSA. ELISA plates were developed using a color reaction (ABTS Peroxide Substrate System, Kirkegaard & Perry, Gaithersburg, Md.) and the OD450 read.

[7] = 10 mM inhibitor (leucine and histidine 10 mM each), four hours metabolic labeling, growth medium, FIG. 10A top panel
[8] = 10 mM inhibitor, C-terminal antibody, FIG. 10A bottom panel
[9] = six hours incubation, ELISA, FIG. 11

Structure (SMILES) | amount of Aβ secreted [1, 7] | amount of full-length APP immunoprecipitated from cell lysates [1, 8] | Aβ generation (autoradiograph) ([1]; figure legend FIG. 10A, neuroblastoma cells, both lines shown) | amount of Aβ secreted [2, 7] | amount of full-length APP immunoprecipitated from cell lysates [2, 8] | decrease of Aβ1-40 in conditioned medium ([3]; 5 mM 3MA, ELISA, FIG. 10B) [%] | decrease of Aβ1-42 in conditioned medium ([3]; 5 mM 3MA, ELISA, FIG. 10B) [%] | Aβ secretion into the growth media (ELISA) ([3]; figure legend FIG. 10B, N2a cells, both lines shown) | decrease of Aβ1-40 in conditioned medium [4] [%] | decrease of Aβ1-42 in conditioned medium [4] [%] | increase in tau protein levels ([5]; 3MA-treated, concentration not given) | tau protein levels (Western blot) [5] | Aβ secretion into the media ([6]; figure legend FIG. 11) | reduction of Aβ40 secreted into the media [6, 9] | reduction of Aβ42 secreted into the media [6, 9] | increase in tau protein levels ([5]; vinblastine 50 μM) [times]
Cn1cnc(N)c2ncnc1-2 [3MA, 3-methyladenine] | reduced | did not affect | decreased | reduced | did not affect | ≥ 20 | ≥ 20 | decreased | ≥ 20 | ≥ 20 | approximately 2 times | increased | reduction | approximately 20% | approximately 20% | –
CC[C@]1(O)C[C@@H]2CN(CCc3c([nH]c4ccccc34)[C@@](C(=O)OC)(c3cc4c(cc3OC)N(C)[C@H]3[C@@](O)(C(=O)OC)[C@H](OC(C)=O)[C@]5(CC)C=CCN6CC[C@]43[C@@H]65)C2)C1 [vinblastine] | – | – | – | – | – | – | – | – | – | – | – | increased | – | – | – | ~2.5
